Values quoted from earlier work as cited in paper PMC3877923 (Journal of the American Chemical Society, 2013).
Marks after values point to notes of the source that are not given here.

For `Cc1cc(C#N)cc(C)c1Oc1nc(Nc2ccc(C#N)cc2)nc(N)c1Br` [etravirine], the “Aqueous solubility S” value is listed as << 1 ^b µg/mL.
